Source: ChEMBL document CHEMBL4184157, “Phenoxypropanolamine derivatives as selective inhibitors of the 20S proteasome β1 and β5 subunits” (Bioorg Med Chem Lett, 2017)
Active and inactive are the calls of the source. The calls are words filed in the database; no cut-off is given here.

Key:
[1] = Inhibition of chymotrypsin-like activity of rabbit erythrocyte 20S proteasome beta5 subunit using Suc-LLVY-AMC as substrate preincubated for 15 mins followed by substrate addition measured after 45 mins by fluorescence assay; design: species or system Oryctolagus cuniculus
[2] = species on record: Oryctolagus cuniculus; assay: Inhibition of trypsin-like activity of rabbit erythrocyte 20S proteasome beta2 subunit at 100 uM using BocLRR-AMC as substrate preincubated for 5 mins followed by substrate addition measured after 45 mins by fluorescence assay
[3] = species on record: Oryctolagus cuniculus; assay: Inhibition of caspase-like activity of rabbit erythrocyte 20S proteasome beta1 subunit at 100 uM using Z-LLE-betaNA as substrate preincubated for 15 mins followed by substrate addition measured after 45 mins by fluorescence assay
[4] = species on record: Oryctolagus cuniculus; assay: Inhibition of chymotrypsin-like activity of rabbit erythrocyte 20S proteasome beta5 subunit at 100 uM using Suc-LLVY-AMC as substrate preincubated for 15 mins followed by substrate addition measured after 45 mins by fluorescence assay
[5] = Inhibition of caspase-like activity of rabbit erythrocyte 20S proteasome beta1 subunit using Z-LLE-betaNA as substrate preincubated for 15 mins followed by substrate addition measured after 45 mins by fluorescence assay; design: species or system Oryctolagus cuniculus
[6] = molecular target: T1, Calpain-1 catalytic subunit (Homo sapiens) (UniProt P07384); assay: Inhibition of human erythrocyte calpain 1 protease using Suc-LLVY-AMC as substrate by fluorescence assay
T1 sequence (whole entry): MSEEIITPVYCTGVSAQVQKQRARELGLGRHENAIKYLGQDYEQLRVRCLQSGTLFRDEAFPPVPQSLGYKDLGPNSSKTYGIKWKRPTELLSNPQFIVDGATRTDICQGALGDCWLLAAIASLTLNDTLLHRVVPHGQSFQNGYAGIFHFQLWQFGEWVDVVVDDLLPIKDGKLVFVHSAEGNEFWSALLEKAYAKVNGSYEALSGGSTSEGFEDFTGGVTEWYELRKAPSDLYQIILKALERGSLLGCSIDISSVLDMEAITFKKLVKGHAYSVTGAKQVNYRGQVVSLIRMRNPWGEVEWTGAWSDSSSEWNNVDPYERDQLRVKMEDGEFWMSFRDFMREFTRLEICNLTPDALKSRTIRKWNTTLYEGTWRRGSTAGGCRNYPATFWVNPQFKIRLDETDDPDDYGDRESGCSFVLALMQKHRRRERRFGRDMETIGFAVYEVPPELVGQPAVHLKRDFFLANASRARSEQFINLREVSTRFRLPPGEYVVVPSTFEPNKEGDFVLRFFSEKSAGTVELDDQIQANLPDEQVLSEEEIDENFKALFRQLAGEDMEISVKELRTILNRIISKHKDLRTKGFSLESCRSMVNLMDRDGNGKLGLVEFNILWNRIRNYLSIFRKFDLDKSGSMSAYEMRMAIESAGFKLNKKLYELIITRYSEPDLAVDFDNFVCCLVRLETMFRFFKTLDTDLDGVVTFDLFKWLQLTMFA

[7] = molecular target: Cathepsin B (Homo sapiens) (UniProt P07858); assay: Inhibition of human hepatocyte cathepsin B protease using Z-RR-AMC as substrate by fluorescence assay
[8] = test system: HeLa; assay: Antiproliferative activity against human HeLa cells assessed as fragmented nuclei at 50 uM after 72 hrs by microscopic method; format: functional, cell-based
[9] = test system: HeLa; assay: Antiproliferative activity against human HeLa cells at 10 uM after 72 hrs by microscopic method; format: functional, cell-based
[10] = test system: Rattus norvegicus; assay: In vivo antiproliferative activity against ip dosed Wistar rat bone marrow cells from femora assessed as inhibition of cell division measured by counting metaphase plates by light microscopic method; format: functional, organism-based
[11] = test system: HeLa; assay: Antiproliferative activity against human HeLa cells after 72 hrs by XTT assay; format: functional, cell-based
[12] = test system: HeLa; assay: Cytotoxicity against human HeLa cells at 10 uM after 72 hrs by XTT assay; format: functional, cell-based
[13] = test system: Rattus norvegicus; assay: In vivo antiproliferative activity against Wistar rat bone marrow cells from femora assessed as inhibition of cell division measured by counting metaphase plates administered at 2 mg per rat, ip by light microscopic method; design: scale not given: the % may be the effect or the level left
[14] = test system: Rattus norvegicus; assay: In vivo antiproliferative activity against Wistar rat bone marrow cells from femora assessed as inhibition of cell division measured by counting metaphase plates administered at 0.2 mg per rat, ip by light microscopic method; design: scale not given: the % may be the effect or the level left

Structure (SMILES)	IC50 [1] [µM]	inhibition [2]	inhibition [3]	IC50 [5] [µM]	further results
OC(CNCC1(c2cccs2)CCOCC1)COc1ccc(Cl)cc1 (stereo not drawn)	40	53%	inactive	–	–
OC(CNCC1(c2cccs2)CCOCC1)COc1ccccc1 (stereo not drawn)	–	39%	36%	–	inhibition [4]: 31%
OC(CNCC1(c2cccs2)CCCC1)COc1ccccc1 (stereo not drawn)	19.3	41%	–	66.5	inhibition [6]: inactive; inhibition [7]: inactive
O=C(O)CSc1cc(NS(=O)(=O)c2cccs2)c2ccccc2c1O	3	–	–	–	–
OC(CNCC1(c2cccs2)CCCCC1)COc1ccc(Cl)cc1 (stereo not drawn)	18	inactive	–	12.8	–
Cc1ccc(OCC(O)CNCC2(c3cccs3)CCOCC2)cc1 (stereo not drawn)	80	49%	inactive	–	–
COc1ccccc1OCC(O)CNCC1(c2cccs2)CCOCC1 (stereo not drawn)	–	inactive	inactive	–	inhibition [4]: inactive
NCC1(c2cccs2)CCCC1	–	inactive	inactive	–	inhibition [4]: 26%
COc1ccccc1OCC(O)CNCC1(c2cccs2)CCCCC1 (stereo not drawn)	17.1	40%	–	22	–
NCC1(c2cccs2)CCCCC1	–	inactive	inactive	–	inhibition [4]: inactive
Cc1ccc(OCC(O)CNCC2(c3cccs3)CCCC2)cc1 (stereo not drawn)	15.4	38%	–	24.2	–
NCC1(c2cccs2)CCOCC1	–	inactive	inactive	–	inhibition [4]: inactive
OC(CNCC1(c2cccs2)CCCC1)COc1ccc(Cl)cc1 (stereo not drawn)	15.8	42%	–	18	inhibition [6]: inactive; inhibition [7]: inactive; Activity [8]: Active; Activity [9]: inactive; Activity [10]: Dose-dependent effect; Activity [11]: Dose-dependent effect; Activity [12]: inactive; Activity [13]: 75%; Activity [14]: 50%
CC1(C)OC(=O)c2c1ccn(CCc1ccccc1)c2=O	–	–	–	48	–
COc1ccccc1OCC(O)CNCC1(c2cccs2)CCCC1 (stereo not drawn)	37.2	48%	–	36	–
OC(CNCC1(c2cccs2)CCCCC1)COc1ccccc1 (stereo not drawn)	14.9	inactive	–	18.1	–
Cc1ccc(OCC(O)CNCC2(c3cccs3)CCCCC2)cc1 (stereo not drawn)	15.5	36%	–	30	–
